Assay results as given in patent US10112943B2, “Substituted imidazoles as gamma secretase modulators” (Janssen Pharmaceutica NV, priority 2012, dated 2018).

Biological target: T1, γ-secretase (Homo sapiens, UniProt P49768)
T1 construct: endogenous in cells; host or cells: SKNBE2 human neuroblastoma cells carrying hAPP 695 wild type
Test: Screening for γ-secretase-modulating activity: Aβtotal in cell supernatant (Alphalisa sandwich immuno-assay)
Assay type: cell-based
Conditions: SKNBE2 human neuroblastoma cells carrying hAPP 695-wild type, overnight incubation
Protocol: A) Screening of the Compounds of the Invention for γ-Secretase-Modulating Activity
Screening was carried out using SKNBE2 human neuroblastoma cells carrying the hAPP 695-wild type, grown in Dulbecco's Modified Eagle's Medium/Nutrient mixture F-12 (DMEM/NUT-mix F-12) (HAM) provided by Invitrogen (cat no. 10371-029) containing 5% Serum/Fe supplemented with 1% non-essential amino acids, 1-glutamine 2 mM, Hepes 15 mM, penicillin 50 U/ml (units/ml) and streptomycin 50 μg/ml. Cells were grown to near confluency.
The screening was performed using a modification of the assay as described in Citron et al (1997) Nature Medicine 3: 67. Briefly, cells were plated in a 384-well plate at 10^4 cells/well in Ultraculture (Lonza, BE12-725F) supplemented with 1% glutamine (Invitrogen, 25030-024), 1% non-essential amino acid (NEAA), penicillin 50 U/ml en streptomycin 50 μg/ml in the presence of test compound at different test concentrations. The cell/compound mixture was incubated overnight at 37° C., 5% CO2. The next day the media were assayed by two sandwich immuno-assays, for Aβ42 and Aβtotal.
Aβtotal and Aβ42 concentrations were quantified in the cell supernatant using the Aphalisa technology (Perkin Elmer). Alphalisa is a sandwich assay using biotinylated antibody attached to streptavidin coated donorbeads and antibody conjugated to acceptor beads. In the presence of antigen, the beads come into close proximity. The excitation of the donor beads provokes the release of singlet oxygen molecules that trigger a cascade of energy transfer in the acceptor beads, resulting in light emission. To quantify the amount of Aβ42 in the cell supernatant, monoclonal antibody specific to the C-terminus of Aβ42 (JRF/cAβ42/26) was coupled to the receptor beads and biotinylated antibody specific to the N-terminus of Aβ (JRF/AβN/25) was used to react with the donor beads. To quantify the amount of Aβtotal in the cell supernatant, monoclonal antibody specific to the N-terminus of Aβ (JRF/AβN/25) was coupled to the receptor beads and biotinylated antibody specific to the mid region of Aβ (biotinylated 4G8) was used to react with the donor beads.
The sigmoidal dose response curves were analyzed using non-linear regression analysis with percentage of the control plotted against the log concentration of the compound. A 4-parameter equation was used to determine the IC50.

IC50: > 10 µM
Structure (SMILES): Cc1cn(-c2ccc3n(c2=O)C[C@@H]2CC[C@@H](Cc4cc(C(F)(F)F)cc(C(F)(F)F)c4)N2C3=O)cn1 (single isomer, unassigned) [Compound 4, 3-[[3,5-bis(trifluoromethyl)phenyl]methyl]-2,3,11,11a-tetrahydro-8-(4-methyl-1H-imidazol-1-yl)-1H-pyrido[1,2-a]pyrrolo[1,2-d]pyrazine-5,9-dione ((3S, 11aS) or (3R, 11aR))]
